Source: ChEMBL document CHEMBL4507319 (2021)

Columns and labels:
COLO 201 = experiment: COLO 201, control cell line Proliferation assay; type: functional, Homo sapiens; details: time 3 day
[1] = biological target: Serine/threonine-protein kinase 25 (Homo sapiens) (UniProt O00506); details: Compound concentration 1000.0 nM
BXPC-3 = experiment: BxPC3 cell line Proliferation assay; type: functional, Homo sapiens; details: time 3 day
[2] = biological target: T1, Serine/threonine-protein kinase 3 (Homo sapiens) (UniProt Q13188); experiment: MST2(h) Eurofins kinase panel; details: Compound concentration 1.0 uM
T1 sequence (whole entry): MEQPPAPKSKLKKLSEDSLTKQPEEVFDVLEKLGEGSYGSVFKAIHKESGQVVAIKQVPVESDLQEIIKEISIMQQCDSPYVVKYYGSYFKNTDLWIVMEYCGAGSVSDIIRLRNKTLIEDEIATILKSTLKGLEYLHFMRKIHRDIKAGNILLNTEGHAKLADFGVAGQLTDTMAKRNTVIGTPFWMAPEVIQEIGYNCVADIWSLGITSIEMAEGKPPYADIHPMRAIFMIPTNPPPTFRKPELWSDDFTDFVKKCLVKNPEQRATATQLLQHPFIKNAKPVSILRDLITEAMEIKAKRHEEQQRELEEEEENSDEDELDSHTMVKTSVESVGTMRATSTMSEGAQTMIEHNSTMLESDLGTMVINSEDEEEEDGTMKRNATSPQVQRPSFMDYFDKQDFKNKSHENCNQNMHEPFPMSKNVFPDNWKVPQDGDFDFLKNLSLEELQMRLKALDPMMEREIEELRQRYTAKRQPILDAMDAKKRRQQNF

[3] = biological target: Casein kinase I isoform gamma-2 (Homo sapiens) (UniProt P78368); experiment: CK1gamma2(h) Eurofins kinase panel; details: Compound concentration 1.0 uM
[4] = biological target: Serine/threonine-protein kinase 10 (Homo sapiens) (UniProt O94804); experiment: LOK(h) Eurofins kinase panel; details: Compound concentration 1.0 uM
[5] = biological target: Phosphatidylinositol 4-phosphate 5-kinase type-1 alpha (Homo sapiens) (UniProt Q99755); experiment: PIP5K1a(h) Eurofins kinase panel; details: Compound concentration 1.0 uM
[6] = biological target: RAC-gamma serine/threonine-protein kinase (Homo sapiens) (UniProt Q9Y243); experiment: PKBgamma (h) Eurofins kinase panel; details: Compound concentration 1.0 uM
[7] = biological target: Calcium/calmodulin-dependent protein kinase type II subunit delta (Homo sapiens) (UniProt Q13557); experiment: CaMKIIdelta(h) Eurofins kinase panel; details: Compound concentration 1.0 uM
[8] = biological target: Tyrosine-protein kinase Fer (Homo sapiens) (UniProt P16591); experiment: Fer(h) Eurofins kinase panel; details: Compound concentration 1.0 uM
[9] = biological target: T2, Serine/threonine-protein kinase ULK3 (Homo sapiens) (UniProt Q6PHR2); experiment: ULK3(h) Eurofins kinase panel; details: Compound concentration 1.0 uM
T2 sequence (whole entry): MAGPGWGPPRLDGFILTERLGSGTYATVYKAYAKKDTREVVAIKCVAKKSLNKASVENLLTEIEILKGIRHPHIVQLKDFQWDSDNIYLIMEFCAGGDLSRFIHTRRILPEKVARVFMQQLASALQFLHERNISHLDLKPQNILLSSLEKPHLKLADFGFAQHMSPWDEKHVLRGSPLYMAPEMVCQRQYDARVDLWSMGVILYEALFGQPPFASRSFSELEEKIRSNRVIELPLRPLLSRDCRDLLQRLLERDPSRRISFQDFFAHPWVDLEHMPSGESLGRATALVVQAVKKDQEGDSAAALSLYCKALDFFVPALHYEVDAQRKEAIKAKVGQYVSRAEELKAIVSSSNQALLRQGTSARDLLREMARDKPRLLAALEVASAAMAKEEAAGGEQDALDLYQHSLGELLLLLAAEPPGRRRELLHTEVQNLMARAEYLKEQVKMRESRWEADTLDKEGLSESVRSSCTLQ

[10] = biological target: Serine/threonine-protein kinase SIK1 (Homo sapiens) (UniProt P57059); experiment: SIK(h) Eurofins kinase panel; details: Compound concentration 1.0 uM
[11] = biological target: T3, Mitogen-activated protein kinase kinase kinase 5 (Homo sapiens) (UniProt Q99683); experiment: ASK1(h) Eurofins kinase panel; details: Compound concentration 1.0 uM
T3 sequence (whole entry): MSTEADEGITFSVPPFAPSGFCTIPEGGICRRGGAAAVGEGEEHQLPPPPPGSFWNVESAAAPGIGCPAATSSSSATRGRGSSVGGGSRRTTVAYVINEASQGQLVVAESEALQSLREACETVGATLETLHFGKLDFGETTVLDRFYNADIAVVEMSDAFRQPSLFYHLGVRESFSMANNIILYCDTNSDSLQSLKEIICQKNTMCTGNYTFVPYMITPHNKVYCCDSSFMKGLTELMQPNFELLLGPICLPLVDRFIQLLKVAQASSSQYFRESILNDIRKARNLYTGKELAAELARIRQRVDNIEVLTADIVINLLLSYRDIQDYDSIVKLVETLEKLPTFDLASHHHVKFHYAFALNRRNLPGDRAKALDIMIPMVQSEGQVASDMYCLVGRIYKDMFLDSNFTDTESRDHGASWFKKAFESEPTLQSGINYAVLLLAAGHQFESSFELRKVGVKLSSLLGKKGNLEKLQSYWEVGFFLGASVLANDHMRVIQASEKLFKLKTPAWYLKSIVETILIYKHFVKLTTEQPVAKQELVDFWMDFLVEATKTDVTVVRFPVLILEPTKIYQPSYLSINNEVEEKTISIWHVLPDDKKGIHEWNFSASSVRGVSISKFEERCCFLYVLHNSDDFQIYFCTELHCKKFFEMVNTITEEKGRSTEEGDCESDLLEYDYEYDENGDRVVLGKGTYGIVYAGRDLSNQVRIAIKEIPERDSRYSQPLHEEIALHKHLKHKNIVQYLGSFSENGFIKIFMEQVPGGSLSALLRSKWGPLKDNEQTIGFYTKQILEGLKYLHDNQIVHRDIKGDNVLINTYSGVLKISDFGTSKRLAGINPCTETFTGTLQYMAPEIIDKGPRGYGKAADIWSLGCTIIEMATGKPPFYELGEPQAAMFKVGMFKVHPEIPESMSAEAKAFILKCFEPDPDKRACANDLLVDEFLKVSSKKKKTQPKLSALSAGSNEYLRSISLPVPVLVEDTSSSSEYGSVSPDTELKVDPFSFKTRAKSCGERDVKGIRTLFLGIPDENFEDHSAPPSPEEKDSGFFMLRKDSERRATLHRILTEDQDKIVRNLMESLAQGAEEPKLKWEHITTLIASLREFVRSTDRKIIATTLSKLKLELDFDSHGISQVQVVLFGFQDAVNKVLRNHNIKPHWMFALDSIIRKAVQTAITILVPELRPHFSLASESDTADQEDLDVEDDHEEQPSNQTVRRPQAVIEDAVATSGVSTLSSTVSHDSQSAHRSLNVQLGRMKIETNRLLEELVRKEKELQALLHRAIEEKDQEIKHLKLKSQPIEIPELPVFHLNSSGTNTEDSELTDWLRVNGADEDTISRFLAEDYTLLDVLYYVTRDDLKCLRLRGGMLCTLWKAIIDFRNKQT

VCaP = experiment: VCaP cell line Proliferation assay; type: functional, Homo sapiens; details: time 6 day
[12] = biological target: Histamine H2 receptor (Homo sapiens) (UniProt P25021); details: Compound concentration 10.0 uM

Sequence of Serine/threonine-protein kinase 25 (Homo sapiens) (O00506 whole entry, looked up): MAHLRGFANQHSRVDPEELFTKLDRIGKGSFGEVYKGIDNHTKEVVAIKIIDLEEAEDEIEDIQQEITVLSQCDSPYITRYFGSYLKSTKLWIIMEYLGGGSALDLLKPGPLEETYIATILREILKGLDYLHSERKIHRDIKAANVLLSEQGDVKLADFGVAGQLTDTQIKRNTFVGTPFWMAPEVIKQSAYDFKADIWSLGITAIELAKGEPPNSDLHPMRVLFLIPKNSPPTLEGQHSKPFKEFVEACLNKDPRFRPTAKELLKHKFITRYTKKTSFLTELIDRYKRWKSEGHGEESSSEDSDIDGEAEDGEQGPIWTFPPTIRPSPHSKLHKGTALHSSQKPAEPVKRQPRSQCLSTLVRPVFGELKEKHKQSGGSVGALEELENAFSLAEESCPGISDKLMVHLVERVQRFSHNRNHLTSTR
Sequence of Calcium/calmodulin-dependent protein kinase type II subunit delta (Homo sapiens) (Q13557 whole entry): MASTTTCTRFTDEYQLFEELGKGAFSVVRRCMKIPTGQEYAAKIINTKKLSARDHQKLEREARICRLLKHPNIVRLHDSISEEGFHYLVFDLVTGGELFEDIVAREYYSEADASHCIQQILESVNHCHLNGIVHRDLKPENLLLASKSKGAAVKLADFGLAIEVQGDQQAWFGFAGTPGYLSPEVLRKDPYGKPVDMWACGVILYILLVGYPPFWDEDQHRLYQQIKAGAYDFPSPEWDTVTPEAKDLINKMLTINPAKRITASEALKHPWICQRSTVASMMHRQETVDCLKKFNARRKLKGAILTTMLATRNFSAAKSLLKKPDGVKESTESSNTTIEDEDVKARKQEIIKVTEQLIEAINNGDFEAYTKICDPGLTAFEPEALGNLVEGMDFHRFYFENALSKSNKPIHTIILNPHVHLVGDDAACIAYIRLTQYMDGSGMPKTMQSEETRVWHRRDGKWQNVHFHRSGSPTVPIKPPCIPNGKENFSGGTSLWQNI
Sequence of Tyrosine-protein kinase Fer (Homo sapiens) (P16591 whole entry, looked up): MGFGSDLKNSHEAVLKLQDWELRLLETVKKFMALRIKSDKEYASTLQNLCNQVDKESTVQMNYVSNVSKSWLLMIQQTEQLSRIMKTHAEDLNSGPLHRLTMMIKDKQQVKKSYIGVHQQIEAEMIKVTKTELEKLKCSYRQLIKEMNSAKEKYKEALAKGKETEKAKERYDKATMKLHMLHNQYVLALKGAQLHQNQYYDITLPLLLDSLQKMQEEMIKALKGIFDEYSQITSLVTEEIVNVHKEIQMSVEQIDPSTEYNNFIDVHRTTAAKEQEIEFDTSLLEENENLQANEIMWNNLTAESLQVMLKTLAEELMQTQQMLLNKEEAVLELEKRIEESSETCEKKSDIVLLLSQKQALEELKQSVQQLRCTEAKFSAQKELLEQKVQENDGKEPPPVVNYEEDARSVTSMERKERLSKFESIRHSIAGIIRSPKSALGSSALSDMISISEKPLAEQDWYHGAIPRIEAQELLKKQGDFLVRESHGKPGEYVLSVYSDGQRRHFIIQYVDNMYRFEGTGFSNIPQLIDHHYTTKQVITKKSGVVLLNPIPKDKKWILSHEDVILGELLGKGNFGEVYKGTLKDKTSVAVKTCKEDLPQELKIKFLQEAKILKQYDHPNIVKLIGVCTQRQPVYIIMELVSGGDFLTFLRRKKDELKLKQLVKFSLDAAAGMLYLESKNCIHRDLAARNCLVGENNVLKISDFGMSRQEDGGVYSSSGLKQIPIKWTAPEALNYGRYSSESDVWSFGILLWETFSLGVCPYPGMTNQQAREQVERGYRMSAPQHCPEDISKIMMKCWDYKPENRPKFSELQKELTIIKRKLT
Sequence of Casein kinase I isoform gamma-2 (Homo sapiens) (P78368 whole entry, looked up, canonical isoform): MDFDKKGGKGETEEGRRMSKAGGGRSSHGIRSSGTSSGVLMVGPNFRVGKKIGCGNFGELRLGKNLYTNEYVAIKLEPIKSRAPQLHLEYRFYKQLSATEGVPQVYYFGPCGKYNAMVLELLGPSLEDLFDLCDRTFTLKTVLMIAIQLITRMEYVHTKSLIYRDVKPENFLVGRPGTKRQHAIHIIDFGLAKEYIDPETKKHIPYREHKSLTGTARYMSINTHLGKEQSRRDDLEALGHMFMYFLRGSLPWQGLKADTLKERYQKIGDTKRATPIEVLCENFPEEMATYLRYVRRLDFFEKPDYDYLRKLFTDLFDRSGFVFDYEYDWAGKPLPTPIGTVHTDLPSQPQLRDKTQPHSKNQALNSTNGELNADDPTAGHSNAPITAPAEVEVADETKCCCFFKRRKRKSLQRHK
Sequence of Phosphatidylinositol 4-phosphate 5-kinase type-1 alpha (Homo sapiens) (Q99755 whole entry): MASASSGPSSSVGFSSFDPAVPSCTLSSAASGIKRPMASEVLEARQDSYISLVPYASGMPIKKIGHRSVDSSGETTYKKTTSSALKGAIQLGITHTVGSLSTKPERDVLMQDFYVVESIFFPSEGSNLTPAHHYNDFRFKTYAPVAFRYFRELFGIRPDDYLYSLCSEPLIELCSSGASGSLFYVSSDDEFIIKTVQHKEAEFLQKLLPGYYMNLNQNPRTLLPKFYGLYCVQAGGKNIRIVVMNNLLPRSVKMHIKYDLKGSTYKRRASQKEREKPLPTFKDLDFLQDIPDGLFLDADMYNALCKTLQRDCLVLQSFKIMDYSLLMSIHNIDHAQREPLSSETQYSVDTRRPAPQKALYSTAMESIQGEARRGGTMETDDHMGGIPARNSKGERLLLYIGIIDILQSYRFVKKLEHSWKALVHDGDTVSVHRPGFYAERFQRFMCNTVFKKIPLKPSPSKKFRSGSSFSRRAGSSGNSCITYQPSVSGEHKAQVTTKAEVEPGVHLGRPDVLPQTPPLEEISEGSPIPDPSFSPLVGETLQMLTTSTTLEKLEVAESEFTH
Sequence of RAC-gamma serine/threonine-protein kinase (Homo sapiens) (Q9Y243 whole entry): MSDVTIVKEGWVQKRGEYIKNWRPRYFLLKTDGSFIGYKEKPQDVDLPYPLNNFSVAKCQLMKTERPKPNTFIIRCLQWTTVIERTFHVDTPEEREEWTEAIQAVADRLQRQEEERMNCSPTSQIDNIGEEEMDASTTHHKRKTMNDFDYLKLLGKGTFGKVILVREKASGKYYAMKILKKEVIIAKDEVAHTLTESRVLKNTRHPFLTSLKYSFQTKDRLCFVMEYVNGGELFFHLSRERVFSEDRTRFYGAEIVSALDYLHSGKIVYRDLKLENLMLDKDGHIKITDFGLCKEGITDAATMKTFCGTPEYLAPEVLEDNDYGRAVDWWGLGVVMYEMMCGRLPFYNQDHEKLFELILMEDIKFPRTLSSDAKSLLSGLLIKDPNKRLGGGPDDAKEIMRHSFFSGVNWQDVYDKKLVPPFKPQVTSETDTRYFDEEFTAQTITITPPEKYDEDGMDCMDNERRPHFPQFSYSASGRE
Sequence of Serine/threonine-protein kinase SIK1 (Homo sapiens) (P57059 whole entry): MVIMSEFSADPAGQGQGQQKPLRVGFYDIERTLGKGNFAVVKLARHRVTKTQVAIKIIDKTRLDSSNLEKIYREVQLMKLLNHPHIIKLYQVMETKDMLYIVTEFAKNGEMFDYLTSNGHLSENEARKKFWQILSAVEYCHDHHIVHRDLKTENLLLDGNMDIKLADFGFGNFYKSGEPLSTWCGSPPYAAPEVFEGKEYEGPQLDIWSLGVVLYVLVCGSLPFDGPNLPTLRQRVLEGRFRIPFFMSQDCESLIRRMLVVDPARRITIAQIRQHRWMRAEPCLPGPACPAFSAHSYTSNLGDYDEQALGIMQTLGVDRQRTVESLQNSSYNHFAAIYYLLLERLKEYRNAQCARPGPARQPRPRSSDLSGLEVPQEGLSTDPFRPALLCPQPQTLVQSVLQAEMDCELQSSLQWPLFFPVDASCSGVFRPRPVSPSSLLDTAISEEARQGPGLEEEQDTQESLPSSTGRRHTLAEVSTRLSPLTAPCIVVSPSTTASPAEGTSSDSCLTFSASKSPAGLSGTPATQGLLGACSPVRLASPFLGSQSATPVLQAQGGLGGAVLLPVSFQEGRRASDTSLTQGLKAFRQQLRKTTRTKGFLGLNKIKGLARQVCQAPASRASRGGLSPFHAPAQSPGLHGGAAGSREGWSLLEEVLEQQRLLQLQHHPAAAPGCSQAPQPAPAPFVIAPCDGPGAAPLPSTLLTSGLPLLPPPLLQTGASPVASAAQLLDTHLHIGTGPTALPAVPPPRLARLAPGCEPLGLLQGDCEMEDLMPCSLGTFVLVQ
Sequence of Serine/threonine-protein kinase 10 (Homo sapiens) (O94804 whole entry, looked up): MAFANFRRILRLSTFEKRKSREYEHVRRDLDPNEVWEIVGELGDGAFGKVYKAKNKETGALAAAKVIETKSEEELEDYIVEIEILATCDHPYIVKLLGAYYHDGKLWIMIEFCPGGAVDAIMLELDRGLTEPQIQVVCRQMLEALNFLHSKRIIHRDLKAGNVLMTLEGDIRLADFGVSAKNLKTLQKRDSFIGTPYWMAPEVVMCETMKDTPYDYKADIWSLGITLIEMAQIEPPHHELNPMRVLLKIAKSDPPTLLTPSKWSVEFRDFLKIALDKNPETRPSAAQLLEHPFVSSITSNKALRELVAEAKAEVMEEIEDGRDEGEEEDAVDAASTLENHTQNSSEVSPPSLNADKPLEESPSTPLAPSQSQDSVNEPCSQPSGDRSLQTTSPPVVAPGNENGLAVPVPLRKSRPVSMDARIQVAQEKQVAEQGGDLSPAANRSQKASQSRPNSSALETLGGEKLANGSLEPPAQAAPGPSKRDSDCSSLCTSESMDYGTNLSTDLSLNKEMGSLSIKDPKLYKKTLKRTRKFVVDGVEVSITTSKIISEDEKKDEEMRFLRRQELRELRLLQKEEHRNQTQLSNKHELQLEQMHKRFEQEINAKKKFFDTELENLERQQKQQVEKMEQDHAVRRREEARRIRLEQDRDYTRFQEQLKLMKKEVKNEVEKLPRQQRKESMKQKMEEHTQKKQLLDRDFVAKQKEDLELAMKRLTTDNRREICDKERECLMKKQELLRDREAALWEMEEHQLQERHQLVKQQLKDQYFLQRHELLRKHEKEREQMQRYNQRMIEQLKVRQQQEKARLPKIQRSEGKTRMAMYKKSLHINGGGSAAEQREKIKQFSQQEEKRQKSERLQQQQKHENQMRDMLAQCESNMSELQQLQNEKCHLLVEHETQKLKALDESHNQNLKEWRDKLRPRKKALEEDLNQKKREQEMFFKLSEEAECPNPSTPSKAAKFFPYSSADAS

CCc1ccccc1C(=O)Nc1n[nH]c2c(C)c(F)c(C3C(C#N)=C(C)N(C)C(C)=C3C#N)cc12 [BAY-3827]
Cell Proliferation IC50 (COLO 201): 16 µM | residual activity [1]: 80% | Cell Proliferation IC50 (BXPC-3): 11.4 µM | % residual kinase activity [2]: 47% | % residual kinase activity [3]: 98% | % residual kinase activity [4]: 88% | % residual kinase activity [5]: 100% | % residual kinase activity [6]: 78% | % residual kinase activity [7]: 75% | % residual kinase activity [8]: 100% | % residual kinase activity [9]: 59% | % residual kinase activity [10]: 86% | % residual kinase activity [11]: 99% | Cell Proliferation IC50 (VCaP): 1.71 µM

CC1=C(C#N)C(c2ccc3c(c2)c(NC(=O)c2ccccc2C)nn3C)C(C#N)=C(C)N1 [BAY-974]
residual activity [1]: 100% | inhibition [12]: 8.7%
